# Test results as given in US20260215425A1, “NITRIFICATION INHIBITORS” (The University of Melbourne, priority 2022, published 2026).
# Legend:
# N. europaea = test: acute toxicity test (LIVE/DEAD stain); format: cell-based; conditions: [4-MPT]=1.5 mM (50 mol % of [NH4+]), [NH4+]=3 mM, 12 h
# Description: Cells were harvested using the ‘standard cell harvesting protocol’. The bacteria solution was adjusted to an OD600=0.8 (100 μg/L protein). The solution was divided into 1 mL aliquots and transferred to a 24-well tissue culture plate (Greiner Cellstar®, polystyrene Tissue Culture treated). Each well contained 980 μL of bacterial solution, 10 μL of a 150 mM aqueous (NH4)2SO4 solution and 10 μL of a 150 mM inhibitor solution. […] After incubation, cells were transferred into a centrifuge tube and sedimented at 10,000 rpm for 10 minutes. The supernatant was discarded, and cells were re-suspended in 1 mL NaPB. A 5 μL aliquot was transferred into a 96-well plate and the bacterial stain (LIVE/DEAD™ BacLight™ Bacterial Viability Kit for microscopy, ThermoFisher Scientific) was added following the manufacturer's guideline. 10 μL of the solution was transferred onto a microscopic slide (Fisher Scientific, Australia, microscope slides 7.6 cm×2.5 cm (L×W), thickness 1-1.2 mm). Ten images were taken per treatment with a fluorescence microscope (Leica DM6000, Germany) using the red filter setting (excitation:
# 575/30 nm (dichromatic) DC: 600; emission: 635/40 nm) and green channel using filter setting (excitation: 500/20 nm DC: 515; emission: 535/30 nm) to detect dead and live cells respectively. The percentage of live and dead cells was calculated via eqns.
# [1] = system: N. europaea and N. multiformis; test: activity recovery assay (binding studies); format: cell-based; conditions: [inhibitor]=1.5 mM, 30 min, then washed and re-incubated with (NH4)2SO4
# Description: Cells were harvested using the ‘standard cell harvesting protocol’. The bacteria solution was adjusted to an OD600=0.8 (100 μg/L protein) and 980 μL aliquots were transferred to 1.5 mL centrifuge tubes (Eppendorf®, polypropylene). 10 μL of the inhibitor solution (150 mM in DMSO) was added and pre-equilibrated for 5 min; 10 μL of aqueous 150 mM (NH4)2SO4 (final concentration in tube=3 mM) was added by via multichannel pipette to ensure simultaneous addition in each tube. The tubes were incubated in a temperature-regulated rotary incubator (Ratek, Australia) for 30 min at 30° C. at 100 rpm in the dark. After 30 minutes, a 50 μL aliquot was transferred to a 96-well plate (Greiner Cellstar®, polystyrene), 50 μL of Griess reagent was added and the mixture incubated for 15 minutes. The absorbance was measured photometrically (Clariostar® BMG Labtech, Australia) at 540 nm. The cells were washed repeatedly (3×) by periodic centrifuging (Boeco, Germany; 10.000 rpm, 10 min) and resuspending the pellet in 1 mL NaPB. After the final centrifuging step, the pellet was resuspended in 990 μL NaPB and re-incubated with (NH4)2SO4 (10 μL of an aqueous 150 mM solution), and the NO2 concentration was measured under the previously described conditions. Each assay was accompanied by control treatments to determine the 0% and 100% NO2 signal. […]
# [2] = molecular target: T1, hydroxylamine oxireductase (HOA) (Nitrosomonas europaea, UniProt Q50925); test: standard nitrification inhibition assay with NH2OH as substrate; format: cell-based, N. europaea; conditions: substrate NH2OH 3 mM, [inhibitor]=0.3 mM, pH 7.5, 30° C., 60 min; read-out: % Inhibition NE
# T1 construct: N. europaea and N. multiformis contain naturally both enzymes; endogenous in cells; host or cells: N. europaea pure culture (whole cells in NaPB)
# T1 sequence (Q50925 25-570): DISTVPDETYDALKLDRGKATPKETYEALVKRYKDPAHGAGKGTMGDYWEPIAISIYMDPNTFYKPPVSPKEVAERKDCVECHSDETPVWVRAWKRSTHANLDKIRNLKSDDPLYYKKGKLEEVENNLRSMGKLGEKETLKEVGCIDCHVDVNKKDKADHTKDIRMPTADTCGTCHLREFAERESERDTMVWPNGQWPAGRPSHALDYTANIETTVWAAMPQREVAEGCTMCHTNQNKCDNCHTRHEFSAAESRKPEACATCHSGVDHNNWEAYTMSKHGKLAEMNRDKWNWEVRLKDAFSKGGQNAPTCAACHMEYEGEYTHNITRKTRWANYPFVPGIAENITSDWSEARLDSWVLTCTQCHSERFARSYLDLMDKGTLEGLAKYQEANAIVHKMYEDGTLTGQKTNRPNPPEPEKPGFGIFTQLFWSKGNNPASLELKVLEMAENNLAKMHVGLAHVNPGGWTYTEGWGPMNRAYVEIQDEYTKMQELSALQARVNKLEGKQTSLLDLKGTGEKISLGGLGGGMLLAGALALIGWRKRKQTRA
compound,measurement,setting,value
"C#CCn1cc(C)nn1 [Compound 4-MPT, 4-Methyl-1-(prop-2-yn-1yl)-1H-1,2,3-triazole]",% Dead,N. europaea,25 ± 8%
same,% Live,N. europaea,75 ± 8%
same,recovery of activity of cells after three washing steps,[1],could not be recovered
same,inhibition at 300 µM,[2],28 ± 3%
